# “Also recorded” adds a separate entry of the source. Structures can show the parent of a compound that is named as a salt.
# Columns and labels:
# [1] = system: CSPG production by astrocytes; test: Western blot of astrocyte conditioned medium, MAB2030 (chondroitin sulfate GAG stubs); type: cell-based, mouse; details: astrocyte conditioned media, 50 μM, 48 hours
# Source text: Astrocytes are major producers of CSPGs following injury in the CNS [Jones, L. L., Margolis, R. U. & Tuszynski, M. H. The chondroitin sulfate proteoglycans neurocan, brevican, phosphacan, and versican are differentially regulated following spinal cord injury. Experimental Neurology 182, 399-411 (2003); Tang, X., Davies, J. E. & Davies, S. J. Changes in distribution, cell associations, and protein expression levels of NG2, neurocan, phosphacan, brevican, versican V2, and tenascin-C during acute to chronic maturation of spinal cord scar tissue. […] The Journal of neuroscience: the official journal of the Society for Neuroscience 20, 2427-2438 (2000); McKeon, R. J., Jurynec, M. J. & Buck, C. R. The chondroitin sulfate proteoglycans neurocan and phosphacan are expressed by reactive astrocytes in the chronic CNS glial scar. The Journal of neuroscience: the official journal of the Society for Neuroscience 19, 10778-10788 (1999); Haas, C. A., Rauch, U., Thon, N., Merten, T. & Deller, T. Entorhinal cortex lesion in adult rats induces the expression of the neuronal chondroitin sulfate proteoglycan neurocan in reactive astrocytes. The Journal of neuroscience: the official journal of the Society for Neuroscience 19, 9953-9963 (1999)] and they may help drive progression of disability in a model of progressive MS [Mayo, L. et al. Regulation of astrocyte activation by glycolipids drives chronic CNS inflammation. Nature medicine 20, 1147-1156 (2014)]. Therefore astrocytes were used as model cells to determine the ability of the sugar analogs to reduce synthesis of CSPGs. Since CSPGs are exported out of cells, the conditioned media from analog-treated astrocytes were probed by Western blots (FIG. 4). We used antibodies to both the stubs of chondroitin sulfate GAGs attached to the core protein (MAB2030) and to intact 4-sulfated chondroitin sulfate sidechains (2H6) (FIG. 4a). Particularly, we used the 2H6 antibody to label intact 4-sulfated chondroitin sulfate sidechains, and the MAB2030 antibody to detect the stubs of chondroitin sulfate GAGs attached to the core protein. […] 1998, 160 (8), 3812-3819. Poole Poole C. A.; Glant T. T.; Schofield J. R.; Chondrons from articular cartilage. (IV). Immunolocalization of proteoglycan epitopes in isolated canine tibial chondrons. J. Histochem. Cytochem. 1991, 39 (9), 1175-1187].
# Astrocytes were plated in uncoated 6-well plates (3 replicate wells per treatment) at 1×10^6 cells/well in mixed glial media, and incubated at 5% CO2 and 37° C. Astrocytes were treated with compounds at 50 μM in AIM-V media for 48 hours. Media was pooled from 3 replicate wells in 15 ml 100K cutoff centricon tubes (EMD Millipore, #UFC905008), which were spun on an ultracentrifuge at 5000× g for 2 cycles of 10 minutes each. When harvested, the cell lysate was kept on ice for 5 minutes with 250 μL of RIPA buffer (ThermoFisher Scientific #89900) containing proteinase inhibitor, and then collected and centrifuged at 14000 g for 5 minutes. Total protein was quantified using a Bradford assay. Conditioned media that were to be probed for chondroitin 4-sulfate GAGs (Millipore, #MAB2030) were first digested with 0.2 U/ml chondroitinase ABC for overnight at 37° C. to remove chondroitin sulfate sidechains. Blots that were to be probed with CSA (2H6, Cosmo) or CS56 (Abcam #ab11570) were not exposed to chondroitinase ABC. Samples were heat denatured with NuPAGE® LDS Sample buffer at 70° C. for 10 minutes and then loaded into 3-8% tris-acetate pre-cast gels (ThermoFisher, #EA0478BOX). The gels were electrophoresed at a constant 150 V for 90 minutes and transferred to a […] polyvinylidene fluoride membrane at a constant 250 mA for 60 minutes. The membranes were blocked for one hour with 10% skim milk in Tris-buffered saline (TBS; 0.9% NaCl, 10 mM Tris-HCl, pH 7.5) containing 0.5% Tween 20 (TBS-T). Primary antibodies were added in 3% skim milk and incubated overnight at 4° C. […]
# [2] = system: oligodendrocyte precursor cells (OPCs); test: Growth of OPCs on astrocyte-secreted extracellular matrix; type: cell-based, mouse; details: astrocytes treated 48 hours, then removed; OPCs plated on matrix
# Source text: The process of remyelination requires oligodendrocyte lineage cells to undergo process outgrowth prior to their expression of mature myelin proteins for repair. Thus, process outgrowth in culture by cells of the oligodendrocyte lineage has been used as one surrogate for myelinating potential in vivo [Keough, M. B.; Rogers, J. A.; Zhang, P.; Jensen, S. K.; Stephenson, E. L.; Chen, T.; Hurlbert, M. G.; Lau, L. W.; Rawji, K. S.; Plemel, J. R. et al. An inhibitor of chondroitin sulfate proteoglycan synthesis promotes central nervous system remyelination. Nat. Commun. 2016, 7, 11312], since an oligodendrocyte needs to elaborate multiple protrusions emanating in several directions to contact many axons, and where these processes then compact around axons to form myelin segments. The presence of CSPGs in culture impairs the process outgrowth of OPCs, and this has been linked to reduced remyelination capacity in vivo [Keough, M. B.; Rogers, J. A.; Zhang, P.; Jensen, S. K.; Stephenson, E. L.; Chen, T.; Hurlbert, M. G.; Lau, L. W.; Rawji, K. S.; Plemel, J. R. et al. An inhibitor of chondroitin sulfate proteoglycan synthesis promotes central nervous system remyelination. Nat. Commun. 2016, 7, 11312]. It was reported previously that astrocytes in culture produce a plate-bound matrix abundant in CSPGs, that is left behind once astrocytes are removed from the plate, and this CSPG-containing matrix inhibits the outgrowth of plated OPCs [Keough, M. B. et al. An inhibitor of chondroitin sulfate proteoglycan synthesis promotes central nervous system remyelination. Nature communications 7, 11312 (2016)] (FIG. 7a). Thus, astrocytes were treated with test compounds for 48 hours and they were then removed from the cell culture plate leaving only their secreted ECM behind (FIG. 7a). When OPCs were plated on the astrocyte matrix, the extent of their process outgrowth over […] of observation was inhibited (FIG. 7b). […] OPCs growing in the absence of astrocyte ECM can reach a mean outgrowth around 300 μm (FIG. 7b,c). […] These compounds were: Ac-4,4-diF-GlcNAc 16 (Ac-4,4-diF-GlcNAc), fluorosamine 3 and its O1-deacetylated analog 10 (Ac-4-F-GlcNAcOH), anomeric O-propanoate 7, anomeric O-butanoate 8 (Ac-4-F-GlcNAcOBu), and the 4-fluorinated GalNAc derivative 13 (Ac-4-F-GalNAc) (FIG. 7c).
# In brief, cortices from postnatal days 1-3 mouse brains were dissociated with papain digestion and then plated as a mixed culture for 7 days in a 37° C. incubator at 8.5% CO2 whereupon OPCs and microglia tended to be loosely attached on top of a monolayer of astrocytes; the OPCs and microglia were then shaken off when placed on an orbital shaker at 220 r.p.m. at 37° C. and 5% CO2 overnight. The media containing microglia and OPCs were collected and added to a 100 mm tissue culture dish and left at 37° C. and 5% CO2 for 30 min, to allow preferential adhesion of microglia. The media were collected again, now containing OPCs, and used as the OPC-enriched isolates for experiments. For the remaining adhered cells, largely astrocytes, these were removed with 0.25% trypsin and after centrifugation and washing, these astrocytes were plated at a density of 1.0×10^5 cells in flat bottom 96-well plates coated with 10 μg/ml poly-L-lysine. Cells were grown for 7 days at 37° C. and 5% CO2 in MGM and daily media changes. Astrocytes were carefully removed with EDTA treatment (0.2 g EDTA (Na4) per liter PBS, 30 minutes at 37° C. and 5% CO2) and mechanical dislodgement with a micropipetter. The remaining ECM left behind was covered with PBS at 4° C. until OPCs were seeded. Enriched OPCs from mixed glial cultures were seeded at a density of 5-10×10^4 cells per well in OPC media and grown at 37° C. and 8.5% CO2 for 18-24 h and then were fixed with 4% ice-cold paraformaldehyde at 4° C. for 10 min, rinsed with PBS, and stored at 4° C. until immunocytochemistry. […]
# [3] = system: TNFα; test: TNFα ELISA of LPS-stimulated bone marrow-derived macrophages; type: cell-based, mouse; details: BMDMs, 50 μM, LPS 100 ng/ml, 24 hours
# Experimental: Multiple Sclerosis: Mechanisms and Immunotherapy. Neuron 97, 742-768 (2018)]. It was tested whether the sugar analogs could affect the activity of macrophages, using bone marrow-derived macrophages (BMDMs) stimulated with lipopolysaccharide (LPS, 100 ng/ml). The sugar analogs were added at 50 μM prior to LPS, and the conditioned medium was collected after 24 hours and assayed for levels of the secreted cytokine TNFα. […] Testing Toxicity of Sugar Analogs
# Femurs were carefully removed from euthanized female C57BI/6 mice, and marrow was flushed into a culture plate with cold complete bone marrow growth medium (DMEM, 10% fetal bovine serum, and the supplements 1% penicillin/streptomycin, 1% glutamine, 1% non-essential amino acids, and 10% supernatant from L929 cell-line enriched in macrophage-colony stimulating factor). Cells were spun at 1100 rpm for 10 minutes, resuspended in fresh growth medium and plated at 10×10^6 cells/ml in a 10 cm culture dish. Cells were grown in DMEM with supplements and L929 supernatant for 5 days, then half the medium was replaced with fresh growth medium. On day 7 growth medium was replaced with DMEM with 10% FBS and supplements. Cells were used on day 8, and experiments were conducted in DMEM with 1% FBS and supplements unless otherwise specified.
# BMDM were plated at 25,000 cells in 96-well plates in DMEM+L929 media. After 24 hours media was changed to DMEM+1% FBS. One hour later, cells were treated with […] compounds or PBS. After 1 hour LPS (final concentration 100 ng/ml) was added. Following 24 hours, conditioned media was harvested for TNFα ELISA (Thermo Scientific), which was performed according to manufacturer's instructions.
# [4] = system: mouse astrocytes; test: Propidium iodide/calcein AM toxicity on astrocytes; type: cell-based; details: 100 μM, 48 hours
# Experimental: Toxicity on astrocytes was assayed with propidium iodide/calcein AM […]. Live cells convert calcein AM into a green fluorescent product, whereas dying/dead cells are stained with propidium iodide.
# 96-well plates were imaged with ImageXpress® Micro Cellular Imaging and Analysis System (Molecular Devices, Sunnyvale, CA). Twelve images per well were collected at ×10 magnification. Images were processed with MetaXpress analysis software. OPC outgrowth was calculated by the MetaExpress® “neurite outgrowth” software module which uses fluorescence and user-modified parameters to document the overall extent of processes emanating from the cell soma, regardless of size of the protrusions or the number of branches. This was previously detailed elsewhere [Cua, R. C.; Lau, L. W.; Keough, M. B.; Midha, R.; Apte, S. S.; and Yong, V. W. Overcoming neurite-inhibitory chondroitin sulfate proteoglycans in the astrocyte matrix. Glia 2013, 61 (6), 972-84]. Live-dead cell assay was calculated with MetaXpress analysis software with the “multiwavelength cell scoring”, which uses fluorescent intensity to measure co-localization of calcein AM, propidium iodide, and […]. Data from the 12 images were averaged to a single data point per well, wherein the OPC outgrowth data calculated from the MetaExpress® “neurite outgrowth” readout was divided by data from the same 12 fields of cell number that was acquired through the multiwavelength cell scoring. This provided mean outgrowth per cell per well, with four well replicates per treatment. Experiments were repeated at least twice.
# A mixture was created containing propidium iodide (10 μg/ml) to stain dead cells, 10 μM Calcein AM (ThermoFisher, #C3100MP) to identify live cells, and 2 drops per ml of media of NucBlue™ Live ReadyProbes™ Reagent (ThermoFisher, #R37605) to identify nuclei. The mixture was added to plate media and incubated for 20-30 minutes at 37° C. and 5% CO2 before imaging. Excitation/emission of calcein-AM (λex 490 nm, λem 515 nm), propidium iodide (λex 535 nm, λem 617 nm), and nuclear blue (λex 350 nm, λem 461 nm) was performed using ImageXpress® Micro Cellular Imaging and Analysis System (Molecular Devices, Sunnyvale, CA) and analyzed by MetaExpress multiwavelength cell scoring program.
compound,measurement,setting,value
"CC(=O)NC1C(OC(C)=O)OC(C(F)F)[C@@H](OC(C)=O)C1OC(C)=O (stereo in doubt) [Compound 18, 2-acetamido-1,3,4-tri-O-acetyl-2,6-dideoxy-6,6-difluoro-α/β-D-glucopyranose]",effect on CSPG production by astrocytes,[1],did not decrease CSPG production in astrocytes
same,mean process outgrowth of OPCs on astrocyte ECM,[2],significantly enhanced OPC outgrowth
"CC(=O)O[C@@H]1[C@@H](OC(C)=O)[C@H](OCCCCCCS(=O)(=O)O)OC[C@H]1OC(C)=O [Compound 23, 6-Sulfohexyl 2,3,4-tri-O-acetyl-β-D-xylopyranoside, sodium salt]",effect on CSPG production by astrocytes,[1]; sodium salt,CSPG production was not impacted; also recorded: did not decrease CSPG production in astrocytes
same,mean process outgrowth of OPCs on astrocyte ECM,[2],significantly enhanced OPC outgrowth
"CC(=O)O[C@H]1OC[C@@H](F)[C@H](OC(C)=O)[C@H]1OC(C)=O [Compound 27, 1,2,3-Tri-O-acetyl-4-deoxy-4-fluoro-α-D-xylopyranose]",effect on CSPG production by astrocytes,[1],did not reduce CSPG production
same,TNFα production by LPS-stimulated macrophages,[3],enhanced TNFα levels
"OO [Compound H2O2, reference compound]",toxicity on astrocytes (propidium iodide/calcein AM),[4],caused a significant increase in toxicity; also recorded: caused increase in propidium iodide-positive staining
